Source: ChEMBL document CHEMBL5244241, “Pyrimidine: A promising scaffold for optimization to develop the inhibitors of ABC transporters” (Eur J Med Chem, 2020)

Key:
K562/A02 = test: Reversal of doxorubicin-induced multidrug resistance in human K562/A02 cells assessed as reversal fold of doxorubicin cytotoxicity by MTT assay; assay type: functional
[1] = target: T1, ATP-dependent translocase ABCB1 (Homo sapiens, UniProt P08183); test: Inhibition of P-gp (unknown origin) mediated ATP hydrolysis
[2] = Oral bioavailability in BALB/c mouse at 50 mg/kg, […] measured upto 24 hrs relative to control; assay type: ADME, organism-based; conditions: in vivo
[3] = target: T1, ATP-dependent translocase ABCB1; test: Inhibition of ABCB1 (unknown origin)

T1 sequence (P08183 whole entry): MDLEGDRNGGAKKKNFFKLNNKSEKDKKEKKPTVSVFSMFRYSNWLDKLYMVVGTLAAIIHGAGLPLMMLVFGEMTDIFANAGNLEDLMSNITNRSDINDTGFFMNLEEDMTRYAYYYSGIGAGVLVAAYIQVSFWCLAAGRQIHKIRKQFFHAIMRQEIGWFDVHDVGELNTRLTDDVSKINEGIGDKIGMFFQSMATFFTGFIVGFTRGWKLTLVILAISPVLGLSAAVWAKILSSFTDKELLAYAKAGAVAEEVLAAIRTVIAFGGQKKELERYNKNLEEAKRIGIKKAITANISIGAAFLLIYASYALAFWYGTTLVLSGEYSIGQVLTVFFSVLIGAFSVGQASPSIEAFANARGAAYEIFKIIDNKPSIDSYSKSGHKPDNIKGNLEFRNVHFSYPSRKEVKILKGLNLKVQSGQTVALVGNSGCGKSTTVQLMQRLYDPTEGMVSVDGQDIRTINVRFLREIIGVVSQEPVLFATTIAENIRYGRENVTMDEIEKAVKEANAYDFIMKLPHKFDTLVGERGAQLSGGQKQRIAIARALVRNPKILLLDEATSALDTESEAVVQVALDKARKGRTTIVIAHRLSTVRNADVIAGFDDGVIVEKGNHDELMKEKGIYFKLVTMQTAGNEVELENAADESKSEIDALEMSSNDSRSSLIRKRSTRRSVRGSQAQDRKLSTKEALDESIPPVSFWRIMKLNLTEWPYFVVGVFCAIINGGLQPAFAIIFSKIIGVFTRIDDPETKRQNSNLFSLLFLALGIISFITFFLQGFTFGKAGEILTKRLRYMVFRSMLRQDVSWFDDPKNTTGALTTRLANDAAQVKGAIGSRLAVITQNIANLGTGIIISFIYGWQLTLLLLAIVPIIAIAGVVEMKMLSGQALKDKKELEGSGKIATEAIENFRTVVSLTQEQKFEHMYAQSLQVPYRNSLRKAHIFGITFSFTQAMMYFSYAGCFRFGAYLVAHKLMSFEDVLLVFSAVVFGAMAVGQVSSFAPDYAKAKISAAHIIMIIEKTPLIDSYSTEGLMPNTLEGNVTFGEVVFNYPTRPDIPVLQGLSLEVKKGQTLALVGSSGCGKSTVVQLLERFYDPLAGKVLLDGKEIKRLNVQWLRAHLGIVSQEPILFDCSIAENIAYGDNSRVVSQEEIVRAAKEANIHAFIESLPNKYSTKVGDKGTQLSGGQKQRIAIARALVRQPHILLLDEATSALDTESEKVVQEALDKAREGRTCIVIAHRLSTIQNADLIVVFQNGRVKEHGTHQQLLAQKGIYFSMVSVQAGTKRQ

SMILES | Ratio (K562/A02) | also measured
CCCCC(CC(C)=O)n1cnc2c(N)ncnc21 (stereo unspecified) | 1.09 | –
CCCCCCCCCCCCCCCCC(=O)CC(CCCCCCCC)n1cnc2c(N)ncnc21 (stereo unspecified) | 1.09 | –
Nc1ncnc2c1ncn2[C@@H]1O[C@H](COC(=O)c2ccc(S(=O)(=O)F)cc2)[C@@H](O)[C@H]1O | – | IC50 [1]: 210 µM
NC(=O)c1c2n(c3c(N4CCN(CCc5ccc(F)c(F)c5)CC4)ncnc13)CCCC2 | – | bioavailability [2]: > 50%
O=[N+]([O-])c1cc(Nc2nc(-c3ccccc3)nc3ccccc23)ccc1O | – | IC50 [3]: 0.08 µM
CCCCCC(CC(C)=O)n1cnc2c(N)ncnc21 (stereo unspecified) | 1.09 | –
